{
  "source": "patent US8574563B2",
  "about": "(Bristol-Myers Squibb Company, priority 2006, dated 2013)",
  "test_system": "HCV 1b-377-neo replicon cells",
  "test": "HCV replicon assay, HCV 1b-377-neo replicon cells (1b FRET)",
  "assay_type": "cell-based, Hepatitis C virus genotype 1b",
  "details": "Hepatitis C virus, HCV 1b-377-neo replicon cells; HCV 1b genotype; read-out: EC50 range against HCV 1b (Table 2, Range)",
  "how_it_was_run": "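Compounds tested in HCV genotype 1b-377-neo replicon cells with a FRET read-out. Cells resistant to a reference NS5A inhibitor through a Y2065H NS5A mutation were run alongside wild-type cells.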",
  "data": [
    {"smiles": "CCN(CC)[C@@H](C(=O)N1CCC[C@H]1c1ncc(-c2ccc(-c3ccc(-c4cnc([C@@H]5CCCN5C(=O)[C@@H](NC(=O)OC)C(C)C)[nH]4)cc3)cc2F)[nH]1)c1ccccc1", "note": "[Example D44, methyl ((1S)-1-(((2S)-2-(5-(4′-(2-((2S)-1-((2R)-2-(diethylamino)-2-phenylacetyl)-2-pyrrolidinyl)-1H-imidazol-5-yl)-3′-fluoro-4-biphenylyl)-1H-imidazol-2-yl)-1-pyrrolidinyl)carbonyl)-2-methylpropyl) carbamate]", "values": [
      {"measurement": "EC50", "value": "0.001 to 0.999", "unit": "nM"}
    ]},
    {"smiles": "O=C(Nc1cccnc1)N[C@@H](C(=O)N1CCC[C@H]1c1ncc(-c2ccc(-c3ccc(-c4cnc([C@@H]5CCCN5C(=O)[C@H](NC(=O)Nc5cccnc5)c5ccccc5)[nH]4)cc3)cc2)[nH]1)c1ccccc1", "note": "[Example 25-8, N,N″-(4,4′-biphenyldiylbis(1H-imidazole-5,2-diyl(2S)-2,1-pyrrolidinediyl((1R)-2-oxo-1-phenyl-2,1-ethanediyl)))bis(3-(3-pyridinyl)urea)]", "values": [
      {"measurement": "EC50", "value": "0.001 to 0.999", "unit": "nM"}
    ]},
    {"smiles": "COC(=O)N[C@@H](C(=O)N1CCC[C@H]1c1ncc(-c2ccc(-c3ccc(-c4cnc([C@@H]5CCCN5C(=O)Cc5cc(C)[nH]n5)[nH]4)cc3)cc2)[nH]1)c1ccccc1", "note": "[Example 84-19, methyl ((1R)-2-((2S)-2-(5-(4′-(2-((2S)-1-((5-methyl-1H-pyrazol-3-yl)acetyl)-2-pyrrolidinyl)-1H-imidazol-5-yl)-4-biphenylyl)-1H-imidazol-2-yl)-1-pyrrolidinyl)-2-oxo-1-phenylethyl)carbamate]", "values": [
      {"measurement": "EC50", "value": "1 to 99", "unit": "nM"}
    ]},
    {"smiles": "CN1CCN(C(C(=O)N2CCC[C@H]2c2ncc(-c3ccc(-c4ccc(-c5cnc([C@@H]6CCCN6C(=O)[C@@H]6CCCO6)[nH]5)cc4)cc3)[nH]2)c2ccccc2)CC1", "note": "(stereo partly drawn) [Example 104, 1-methyl-4-(2-oxo-1-phenyl-2-((2S)-2-(5-(4′-(2-((2S)-1-((2S)-tetrahydro-2-furanylcarbonyl)-2-pyrrolidinyl)-1H-imidazol-5-yl)-4-biphenylyl)-1H-imidazol-2-yl)-1-pyrrolidinyl)ethyl)piperazine]", "values": [
      {"measurement": "EC50", "value": "0.001 to 0.999", "unit": "nM"}
    ]},
    {"smiles": "COC(=O)N[C@@H](C)C(=O)N1CCC[C@H]1c1ncc(-c2ccc(-c3ccc(-c4cnc([C@@H]5CCCN5C(=O)[C@H](Cc5cncn5C)NC(=O)OC)[nH]4)cc3)cc2)[nH]1", "note": "[cj-45, methyl ((1S)-2-((2S)-2-(5-(4′-(2-((2S)-1-(N-(methoxycarbonyl)-L-alanyl)-2-pyrrolidinyl)-1H-imidazol-5-yl)-4-biphenylyl)-1H-imidazol-2-yl)-1-pyrrolidinyl)-1-((1-methyl-1H-imidazol-5-yl)methyl)-2-oxoethyl)carbamate]", "values": [
      {"measurement": "EC50", "value": "0.001 to 0.999", "unit": "nM"}
    ]},
    {"smiles": "COC(=O)N[C@@H](C(=O)N1CCC[C@H]1c1ncc(-c2ccc(-c3ccc(-c4cnc([C@@H]5CCCN5C(=O)[C@H]5CCCO5)[nH]4)cc3)cc2)[nH]1)c1ccccc1", "note": "[Example 36, methyl ((1R)-2-oxo-1-phenyl-2-((2S)-2-(5-(4′-(2-((2S)-1-((2R)-tetrahydro-2-furanylcarbonyl)-2-pyrrolidinyl)-1H-imidazol-5-yl)-4-biphenylyl)-1H-imidazol-2-yl)-1-pyrrolidinyl)ethyl)carbamate]", "values": [
      {"measurement": "EC50", "value": "0.001 to 0.999", "unit": "nM"}
    ]},
    {"smiles": "COC(=O)N[C@@H](C(=O)N1[C@H](c2ncc(-c3ccc(-c4ccc(-c5cnc([C@@H]6C[C@@H]7C[C@@H]7N6C(=O)[C@H](NC(=O)OC)C(C)C)[nH]5)cc4)cc3)[nH]2)C[C@@H]2C[C@@H]21)C(C)C", "note": "[Example M123, methyl ((1R)-1-(((1S,3S,5S)-3-(5-(4′-(2-((1S,3S,5S)-2-((2R)-2-((methoxycarbonyl)amino)-3-methylbutanoyl)-2-azabicyclo[3.1.0]hex-3-yl)-1H-imidazol-5-yl)-4-biphenylyl)-1H-imidazol-2-yl)-2-azabicyclo[3.1.0]hex-2-yl)carbonyl)-2-methylpropyl)carbamate]", "values": [
      {"measurement": "EC50", "value": "1000 to 10000", "unit": "nM"}
    ]},
    {"smiles": "COC(=O)N[C@@H](C)C(=O)N1C[C@@H](F)C[C@H]1c1ncc(-c2ccc(-c3ccc(-c4cnc([C@@H]5C[C@H](F)CN5C(=O)[C@H](C)NC(=O)OC)[nH]4)cc3)cc2)[nH]1", "note": "[JG-13, methyl ((1S)-2-((2S,4S)-4-fluoro-2-(5-(4′-(2-((2S,4S)-4-fluoro-1-(N-(methoxycarbonyl)-L-alanyl)-2-pyrrolidinyl)-1H-imidazol-5-yl)-4-biphenylyl)-1H-imidazol-2-yl)-1-pyrrolidinyl)-1-methyl-2-oxoethyl)carbamate]", "values": [
      {"measurement": "EC50", "value": "1 to 99", "unit": "nM"}
    ]},
    {"smiles": "COC(=O)N[C@@H](C(=O)N1CCC[C@H]1c1ncc(-c2ccc(-c3ccc(-c4cnc([C@@H]5CCCN5C(=O)[C@@H](c5ccccc5)N5CCCC5)[nH]4)cc3)cc2)[nH]1)c1ccccc1", "note": "[Example 100, methyl ((1R)-2-oxo-1-phenyl-2-((2S)-2-(5-(4′-(2-((2S)-1-((2R)-2-phenyl-2-(1-pyrrolidinyl)acetyl)-2-pyrrolidinyl)-1H-imidazol-5-yl)-4-biphenylyl)-1H-imidazol-2-yl)-1-pyrrolidinyl)ethyl)carbamate]", "values": [
      {"measurement": "EC50", "value": "0.001 to 0.999", "unit": "nM"}
    ]},
    {"smiles": "COC(=O)N[C@@H](C(=O)N1CCC[C@H]1c1ncc(-c2ccc(-c3ccc(-c4nc([C@@H]5CCCN5C(=O)[C@H](NC(=O)OC)c5ccccc5)[nH]c4C)cc3)cc2)[nH]1)c1ccccc1", "note": "[Example E5c, methyl ((1R)-2-((2S)-2-(4-(4′-(2-((2S)-1-((2R)-2-((methoxycarbonyl)amino)-2-phenylacetyl)-2-pyrrolidinyl)-1H-imidazol-4-yl)-4-biphenylyl)-5-methyl-1H-imidazol-2-yl)-1-pyrrolidinyl)-2-oxo-1-phenylethyl)carbamate]", "values": [
      {"measurement": "EC50", "value": "0.001 to 0.999", "unit": "nM"}
    ]},
    {"smiles": "COC(=O)N[C@@H](C)C(=O)N1CCC[C@H]1c1ncc(-c2ccc(-c3ccc(-c4cnc([C@@H]5CCCN5C(=O)[C@H](Cn5cccn5)NC(=O)OC)[nH]4)cc3)cc2)[nH]1", "note": "[cj-37, methyl ((1S)-2-((2S)-2-(5-(4′-(2-((2S)-1-(N-(methoxycarbonyl)-L-alanyl)-2-pyrrolidinyl)-1H-imidazol-5-yl)-4-biphenylyl)-1H-imidazol-2-yl)-1-pyrrolidinyl)-2-oxo-1-(1H-pyrazol-1-ylmethyl)ethyl)carbamate]", "values": [
      {"measurement": "EC50", "value": "0.001 to 0.999", "unit": "nM"}
    ]},
    {"smiles": "CN[C@@H](C(=O)N1CCC[C@H]1c1nc(-c2ccc(-c3ccc(-c4cnc([C@@H]5CCCN5C(=O)[C@H](NC)c5ccccc5)[nH]4)cc3)cc2)c[nH]1)c1ccccc1", "note": "[Example F15, (1R)-N-methyl-2-((2S)-2-(4-(4′-(2-((2S)-1-((2R)-2-(methylamino)-2-phenylacetyl)-2-pyrrolidinyl)-1H-imidazol-5-yl)-4-biphenylyl)-1H-imidazol-2-yl)-1-pyrrolidinyl)-2-oxo-1-phenylethanamine]", "values": [
      {"measurement": "EC50", "value": "0.001 to 0.999", "unit": "nM"}
    ]},
    {"smiles": "COC(=O)N[C@@H](C)CC(=O)N1CCC[C@H]1c1ncc(-c2ccc(-c3ccc(-c4cnc([C@@H]5CCCN5C(=O)C[C@H](C)NC(=O)OC)[nH]4)cc3)cc2)[nH]1", "note": "[cj-126, dimethyl (4,4′-biphenyldiylbis(1H-imidazole-5,2-diyl(2S)-2,1-pyrrolidinediyl((2S)-4-oxo-4,2-butanediyl)))biscarbamate]", "values": [
      {"measurement": "EC50", "value": "0.001 to 0.999", "unit": "nM"}
    ]},
    {"smiles": "CCN(CC)[C@@H](C(=O)N1CCC[C@H]1c1ncc(-c2ccc(-c3ccc(-c4cnc([C@@H]5CCCN5C(=O)[C@@H](NC(=O)OC)C(C)C)[nH]4)cc3)cc2)[nH]1)C(C)C", "note": "[Example M79, methyl ((1S)-1-(((2S)-2-(5-(4′-(2-((2S)-1-(N,N-diethyl-D-valyl)-2-pyrrolidinyl)-1H-imidazol-5-yl)-4-biphenylyl)-1H-imidazol-2-yl)-1-pyrrolidinyl)carbonyl)-2-methylpropyl)carbamate]", "values": [
      {"measurement": "EC50", "value": "1 to 99", "unit": "nM"}
    ]},
    {"smiles": "CN(C)[C@@H](C(=O)N1C[C@@H](F)C[C@H]1c1ncc(-c2ccc(-c3ccc(-c4cnc([C@@H]5C[C@H](F)CN5C(=O)[C@@H](c5ccccc5)N(C)C)[nH]4)cc3)cc2)[nH]1)c1ccccc1", "note": "[Example 24-5]", "values": [
      {"measurement": "EC50", "value": "0.001 to 0.999", "unit": "nM"}
    ]},
    {"smiles": "O=C(C(c1ccccc1)N1CCC(O)CC1)N1CCC[C@H]1c1ncc(-c2ccc(-c3ccc(-c4cnc([C@@H]5CCCN5C(=O)[C@@H](c5ccccc5)N5CCCC5)[nH]4)cc3)cc2)[nH]1", "note": "(stereo partly drawn) [Example 97, 1-(2-oxo-1-phenyl-2-((2S)-2-(5-(4′-(2-((2S)-1-((2R)-2-phenyl-2-(1-pyrrolidinyl)acetyl)-2-pyrrolidinyl)-1H-imidazol-5-yl)-4-biphenylyl)-1H-imidazol-2-yl)-1-pyrrolidinyl)ethyl)-4-piperidinol]", "values": [
      {"measurement": "EC50", "value": "0.001 to 0.999", "unit": "nM"}
    ]},
    {"smiles": "COC(=O)N[C@@H](C(=O)N1CCC[C@H]1c1ncc(-c2ccc(-c3ccc(-c4cnc([C@@H]5CCCN5C(=O)C(=O)N(C)C)[nH]4)cc3)cc2)[nH]1)c1ccccc1", "note": "[Example 73, methyl ((1R)-2-((2S)-2-(5-(4′-(2-((2S)-1-((dimethylamino)(oxo)acetyl)-2-pyrrolidinyl)-1H-imidazol-5-yl)-4-biphenylyl)-1H-imidazol-2-yl)-1-pyrrolidinyl)-2-oxo-1-phenylethyl)carbamate]", "values": [
      {"measurement": "EC50", "value": "0.001 to 0.999", "unit": "nM"}
    ]},
    {"smiles": "COC(=O)N[C@@H](C(=O)N1CCC[C@H]1c1ncc(-c2ccc(-c3ccc(-c4cnc([C@@H]5CCCN5C(=O)CN5CCOCC5)[nH]4)cc3)cc2)[nH]1)c1ccccc1", "note": "[Example 39, methyl ((1R)-2-((2S)-2-(5-(4′-(2-((2S)-1-(4-morpholinylacetyl)-2-pyrrolidinyl)-1H-imidazol-5-yl)-4-biphenylyl)-1H-imidazol-2-yl)-1-pyrrolidinyl)-2-oxo-1-phenylethyl)carbamate]", "values": [
      {"measurement": "EC50", "value": "0.001 to 0.999", "unit": "nM"}
    ]},
    {"smiles": "CC(=O)OC(C(=O)N1CCC[C@H]1c1ncc(-c2ccc(-c3ccc(-c4cnc([C@@H]5CCCN5C(=O)[C@@H](c5ccccc5)N5CCCCC5)[nH]4)cc3)cc2)[nH]1)c1ccccc1", "note": "(stereo in doubt) [Example 107-1, (1S)-2-oxo-1-phenyl-2-((2S)-2-(5-(4′-(2-((2S)-1-((2R)-2-phenyl-2-(1-piperidinyl)acetyl)-2-pyrrolidinyl)-1H-imidazol-5-yl)-4-biphenylyl)-1H-imidazol-2-yl)-1-pyrrolidinyl) ethyl acetate]", "values": [
      {"measurement": "EC50", "value": "0.001 to 0.999", "unit": "nM"}
    ]},
    {"smiles": "COC(=O)N[C@@H](C(=O)N1CCC[C@H]1c1ncc(-c2ccc(-c3ccc(-c4cnc([C@@H]5CCCN5C(=O)C5CCOCC5)[nH]4)cc3)cc2)[nH]1)c1ccccc1", "note": "[Example 45, methyl ((1R)-2-oxo-1-phenyl-2-((2S)-2-(5-(4′-(2-((2S)-1-(tetrahydro-2H-pyran-4-ylcarbonyl)-2-pyrrolidinyl)-1H-imidazol-5-yl)-4-biphenylyl)-1H-imidazol-2-yl)-1-pyrrolidinyl)ethyl)carbamate]", "values": [
      {"measurement": "EC50", "value": "0.001 to 0.999", "unit": "nM"}
    ]}
  ]
}
